According to patent US8420696B2, “Use of low-dose ladostigil for neuroprotection” (priority 2005, dated 2013):
Several values for one entry are separate records, joined by “and”; a condition that tells them apart may be missing. Identical values can stand only once. Entries after “also recorded” stand apart in the source; their conditions may differ.

Tests used:
cultured microglia = test: Release of NO from cultured microglia induced by LPS; assay type: cell-based; conditions: concentrations of 0.1-10 μM; preliminary data
Protocol: It is therefore likely that the neuroprotective effect of ladostigil resulted from other actions of the drug. These could include a direct effect on microglia as shown in preliminary data from experiments in our laboratory in which concentrations of 0.1-10 μM reduced by 20-40% the release of NO from cultured microglia induced by LPS. These concentrations are too low to inhibit ChE in microglia.

[1] = test system: nitrotyrosine immunoreactivity in astrocytes; test: Example 1: nitrotyrosine immunoreactivity in hippocampal CA1 astrocytes one week after icv STZ; assay type: in vivo, Sprague-Dawley rats; conditions: for Increase in nitrotyrosine immunoreactivity in astrocytes in three areas of the CA1 region of the hippocampus: ladostigil 1.0 mg/kg daily oral, one week before to one week after icv STZ
Protocol: The study was performed on male Sprague-Dawley rats (Harlan, Jerusalem) weighing 320-340 g, aged 4 months, according to the guidelines of the University Committee for Institutional Animal Care and based on those of the National Institutes of Health, USA. The rats were housed for one week prior to surgery in the Animal House at an ambient temperature of 21±1° C. and a 12 hr diurnal light cycle (lights on at 0700 hr).
Male Sprague-Dawley rats (30) weighing 320-340 g, were anaesthetized by an intraperitoneal (i.p.) injection of Equithesin 0.3 ml/kg. STZ (0.5 mg) in 2 μl artificial cerebrospinal fluid (CSF) was injected into each lateral ventricle of 20 rats. The stereotaxic co-ordinates for icv injection were: 0.9 mm posterior, 1.8 mm lateral and 3.8 mm ventral from the bregma level. Control rats (10) received a bilateral injection of 2 μl artificial CSF. Half of the STZ-injected rats were given ladostigil (1 mg/kg) orally in a volume of (1 ml/kg) one week before, and for one week after icv STZ. The remainder, received 1 ml/kg water. The rats were anaesthetized with sodium pentobarbitone, perfused transcardially and the brains processed for immunocytochemistry as described below.
The brains were sectioned in a cryostat in 30 μm thick slices and stained immunochemically with the following markers: Nitrotyrosine, a marker of nitrative/oxidative stress, was stained with rabbit anti-nitrotyrosine from Upstate (Lake Placid, N.Y., USA), diluted 1:100. Glial fibrillary acidic protein (GFAP), a marker of astrocyte activation, was stained with mouse antibody, clone GA-5 from Sigma (Rehovot, Israel), diluted 1:500. […]. For rabbit antibodies, the secondary donkey anti-rabbit conjugated with horseradish peroxidase from Chemicon (Temecula, Calif., USA), was diluted 1:200. For mouse anti-GFAP, the secondary goat anti mouse conjugated with horseradish peroxidase from Sigma (Rehovot, Israel), was diluted 1:100. Colour development was obtained by reaction with diaminobenzidine and hydrogen peroxide as described in Shoham et al., Intracerebroventricular injection of streptozotocin causes neurotoxicity to myelin that contributes to spatial memory deficits in rats, Exp. Neurol. (2003) 184:1043-52. Images were obtained by bright field microscopy and quantitative assessments of appropriate markers were made by means of densitometric measurements with AnalySIS software.
Rectangular fields measuring 200 μm×100 μm were sampled from these areas in two sections containing the hippocampus from each rat. The percentage area in which nitrotyrosine immunoreactivity was seen was computed and averaged between the two sections.
Densitometic data were analyzed by univariate ANOVA followed by Duncan's post hoc test.

ChE = test: Example 2: total ChE activity in cortex, hippocampus and plasma after ladostigil treatment; assay type: in vivo, rats
Protocol: The effect of chronic ladostigil treatment on ChE activity in the cortex and hippocampus of rats was determined one week after icv STZ in 12 rats (3 treated with water and 9 with ladostigil). The effect of acute treatment with ladostigil 1 or 17 mg/kg was determined 2 hrs after drug administration. […] The brain was rapidly removed, washed with saline on ice and the cortex, hippocampus and striatum dissected out, quickly weighed and stored at −70° C. until assay. Total ChE activity in the cortex and hippocampus was measured as described in Wang et al., Gender differences in the effect of rivastigmine on brain cholinesterase activity and cognitive function in rats, Neuropharmacology (2000) 39:497-506, using the spectrophotometric method of Ellman et al., A new and rapid colorimetric determination of acetylcholinesterase activity, Biochem. Pharmacol. (1961) 7:88-95 with acetylthiocholine (Sigma Ltd) as a substrate using homogenate of 100 mg tissue in 1 ml phosphate buffer. To determine only butyrylcholinesterase (BuChE) activity the amounts of tissue/ml of buffer were increased 3-fold and butyrylthiocholine (Sigma Ltd) was used as a substrate. MAO A and B activity was measured in homogenates of striatum as described in Weinstock et al., Limited potentiation of blood pressure response to oral tyramine by brain-selective monoamine oxidase A-B inhibitor, TV-3326 in conscious rabbits, Neuropharmacology (2002) 43:999-1005.

[2] = STZ + ladostigil 1 mg/kg orally one week before and one week after icv STZ, mean of two sections per rat
[3] = STZ + ladostigil 1 mg/kg orally, n = 5

C#CCN[C@@H]1CCc2ccc(OC(=O)N(C)CC)cc21 [ladostigil, R(+)-6-(N-methyl,N-ethyl-carbamoyloxy)-N′-propargyl-1-aminoindan] was tested, and the “Reduction of the release of NO from cultured microglia induced by LPS” value (cultured microglia) was 20-40%, the “Nitrotyrosine Immunoreactivity, Alveus (percentage area), individual rat” value [1, 2] was 4 and 9.5 and 7 and 9 and 15 and the “Nitrotyrosine Immunoreactivity, Stratum oriens (percentage area), individual rat” value [1, 2] was 14.5 and 19 and 5.5 and 8.5 and 20.5. The “Nitrotyrosine Immunoreactivity, Stratum radiatum (percentage area), individual rat” value [1, 2] was 1.5 and 22 and 3 and 7.5 and 11.5, the “Nitrotyrosine Immunoreactivity, Alveus (percentage area), group Mean ± SEM” value [1, 3] was 8.9 ± 1.8 and the “Nitrotyrosine Immunoreactivity, Stratum oriens (percentage area), group Mean ± SEM” value [1, 3] was 13.6 ± 2.9. The “Nitrotyrosine Immunoreactivity, Stratum radiatum (percentage area), group Mean ± SEM” value [1, 3] was 9.1 ± 3.7, the “Increase in nitrotyrosine immunoreactivity in astrocytes in three areas of the CA1 region of the hippocampus” value [1] was “prevented the increase” and the “Increase in nitrotyrosine immunoreactivity in astrocytes in three areas of the CA1 region of the hippocampus” value ([1]; listed as Ladostigil) was “completely prevented the increase”. For the same compound, the “ChE (%) inhibition” value (ChE; Cortex, 60 min after last dose, chronic 1 mg/kg, seven days after icv STZ) was 16.1 ± 4.7 %, the “ChE (%) inhibition” value (ChE; Cortex, 120 min after last dose, chronic 1 mg/kg, seven days after icv STZ) was 23.6 ± 3.1 % and the “ChE (%) inhibition” value (ChE; Hippocampus, 60 min, chronic 1 mg/kg) was 4.9 ± 2.6%. For the same compound, the “ChE (%) inhibition” value (ChE; Hippocampus, 120 min, chronic 1 mg/kg) was 5.9 ± 3.2%, the “ChE (%) inhibition” value (ChE; Plasma, 120 min, chronic 1 mg/kg) was 20 ± 2% and the “ChE inhibition in the hippocampus or plasma” value (ChE; acute administration 1 mg/kg) was “not in the hippocampus or plasma”. For the same compound, the “ChE inhibition in both brain regions and in plasma” value (ChE; acute administration 17 mg/kg, 17 mg/kg) was 40-42% and 40%, the “Inhibition of ChE activity in the plasma” value (ChE; chronic 1 mg/kg) was 20% and the “Inhibition of ChE in the hippocampus” value (ChE; chronic 1 mg/kg) was “no ChE inhibition occurred; also recorded: no significant AChE inhibition occurred”. For the same compound, the “Inhibition of total ChE activity in the cortex” value (ChE; chronic 1 mg/kg, seven days after icv STZ, 1 or 2 hrs after the last dose) was 24% and 28% and ~20%.
